Assay results reported in patent US20250051337A1 (priority 2021, published 2025).

Key:
LRRK2 = LRRK2 (Homo sapiens (Human), UniProt Q5S007); experiment: NanoBRET intracellular kinase assay, LRRK2; type: cell-based; conditions: transfected HEK293 cells, 2 h
Experimental: Full-length STK3, STK4, and LRRK2 kinase was cloned in-frame with a C-terminal NanoLuc-fusion (Promega: Madison, WI, USA) and the plasmid was transfected into HEK293T cells using FuGENE HD (Promega, E2312). After 20 h, transfected cells were mixed with inhibitors and 50 nM NanoBRET Kinase Tracer K10 (Promega) and reseeded at a density of 2× 10^5 cells/mL in Opti-Minimal Essential Medium (MEM) without phenol red (Life Technologies; Carlsbad, CA, USA) in 384-well plates (Greiner 781-207; Kremsmunster, Austria). After 2 h at 37° C. in a 5% CO2 atmosphere, NanoBRET NanoGlo Substrate+Extra-cellular NanoLuc Inhibitor (Promega, N2540) was added, and filtered luminescence was measured on a PHERAstar plate reader (BMG Labtech; Ortenberg, Germany) equipped with a lumi-nescence filter pair (450 nm BP filter (donor) and 610 nm LP filter (acceptor)).
To confirm cellular potency for compounds described herein, the […] were used to detect engagement of STK3 and STK4 in live cells using the NanoBRET™ intracellular kinase assay, marking the first report of a NanoBRET assay for STK3 and STK4. This assay measured the apparent affinity of test compounds by competitive displacement of the NanoBRET™ tracer, reversibly bound to a NanoLuc® luciferase-kinase fusion in cells. To evaluate potential off-target activity of the inhibitors, the inhibition of LRRK2 in live cells by the STK3/4 inhibitors compounds described herein were measured. Cultured HEK293 cells were either transfected with NanoLuc®-STK3 fusion vector, NanoLuc®-STK4 fusion, or with NanoLuc®-LRRK2 vector for 24 h. A 50 nM tracer and these compounds were added to cells and incubated for 2 h. These compounds tested in the assays decreased the NanoBRET™ signal for both STK3 and STK4 at varying potencies and confirming cellular target engagement of STK3/4.

[1] = tested on: YAP/TAZ-TEAD activity (8×GTIIC-luciferase) in HEK293 cells; experiment: YAP-TAZ-TEAD luciferase assay; type: cell-based; conditions: 10 μM, 48 h, vs DMSO
Experimental: 8×GTIIC-luciferase was a gift from Stefano Piccolo (Addgene plasmid #34615, http://n2t.net/addgene: 34615: RRID: Addgene_34615). HEK293 cells were transfected with 8×GTIIC-luciferase plasmid and control Renilla luciferase plasmid using jetPRIME transfection reagent (Polyplus-transfection RSA: New York, NY. USA) for 24 h and cultured in Dulbeco's Modified Eagle Media (DMEM) Glutamax supplemented with 10% Fetal Bovine Serum (FBS), antibiotic/antimycotic, and sodium pyruvate (Gibco. Thermo FisherScientific: Waltham. MA. USA). The transfected cells were treated with 10 μM compound in triplicate and incubated for 48 h at 37° C. Firefly and Renilla luminescence were detected with a Dual-Glo Luciferase Assay System (Promega #E2920) according to the manufacturer's recommendations. The ratio of firefly to Renilla luminescence was calculated for each well and normalized to the ratio in control cells incubated with DMSO.
STK3/4 can negatively regulate the activity of the YAP/TAZ-TEAD protein complex and, accordingly, inactivation of these kinases reduces the transcription of YAP/TAZ-TEAD target genes. […] The results confirmed the intracellular on-target activity of our potent compounds for inhibiting STK3 and STK4 activity and targeting gene expression in the Hippo signaling pathway.

Caco-2 permeability = type: in vitro ADME; conditions: human; for Papp B→A: Caco-2; for efflux ratio: Caco-2, Papp (B→A/A→B)
Experimental: (§1) The Caco-2 cell permeability was determined for selected compounds 6, 11, 16, and 23. Permeability is classified as follows: high >10, medium, 1-10, and low ≤1. The efflux ratio is calculated by Papp (B→A/A→B). A compound is a potential transporter substrate if efflux ratio >2.0. Atenolol, Propranolol, and Taxol were used as internal standards. Data is represented as an average of a single experiment preformed in duplicate. Apparent permeability=(Papp).

Caco-2 cell = experiment: Caco-2 permeability; type: in vitro ADME; conditions: Caco-2, classification
Experimental: as §1

in vivo = conditions: female, C57BL/6J, mouse, ip, 10 mg/kg
Experimental: All animal procedures were approved by the Sanford Burnham Prebys Medical Discovery Institute Institutional Animal Care and Use Committee and were performed according to the NIH guidelines for the Care and Use of Laboratory Animals. Adult female C57BL/6J mice were purchased from Jackson Laboratories and housed with free access to food and water on a 12 h light/dark cycle. Compounds were formulated in 5% DMSO, 10% Tween-80, and 85% H2O and injected intraperitoneally at 10 or 20 mg/kg. Blood samples were collected retro-orbitally at the indicated times and plasma was prepared by centrifugation. Livers were collected post mortem at the indicated times.
For quantification of compound, plasma samples were extracted with acetonitrile: water 4:1 with 0.1% formic acid containing indomethacin as an internal standard. Samples were centrifuged and the supernatants were diluted with acetonitrile: water and analyzed by LC-MS/MS using a Shimadzu Nexera X2 High-performance liquid chromatography (HPLC) (Shimadzu Scientific Instruments: Kyoto, Japan) coupled to an AB Sciex 6500 QTRAP (AB Sciex LLC: Toronto, Canada).

Sequence of LRRK2 (Q5S007 whole entry, species assumed, the tested form may be a part): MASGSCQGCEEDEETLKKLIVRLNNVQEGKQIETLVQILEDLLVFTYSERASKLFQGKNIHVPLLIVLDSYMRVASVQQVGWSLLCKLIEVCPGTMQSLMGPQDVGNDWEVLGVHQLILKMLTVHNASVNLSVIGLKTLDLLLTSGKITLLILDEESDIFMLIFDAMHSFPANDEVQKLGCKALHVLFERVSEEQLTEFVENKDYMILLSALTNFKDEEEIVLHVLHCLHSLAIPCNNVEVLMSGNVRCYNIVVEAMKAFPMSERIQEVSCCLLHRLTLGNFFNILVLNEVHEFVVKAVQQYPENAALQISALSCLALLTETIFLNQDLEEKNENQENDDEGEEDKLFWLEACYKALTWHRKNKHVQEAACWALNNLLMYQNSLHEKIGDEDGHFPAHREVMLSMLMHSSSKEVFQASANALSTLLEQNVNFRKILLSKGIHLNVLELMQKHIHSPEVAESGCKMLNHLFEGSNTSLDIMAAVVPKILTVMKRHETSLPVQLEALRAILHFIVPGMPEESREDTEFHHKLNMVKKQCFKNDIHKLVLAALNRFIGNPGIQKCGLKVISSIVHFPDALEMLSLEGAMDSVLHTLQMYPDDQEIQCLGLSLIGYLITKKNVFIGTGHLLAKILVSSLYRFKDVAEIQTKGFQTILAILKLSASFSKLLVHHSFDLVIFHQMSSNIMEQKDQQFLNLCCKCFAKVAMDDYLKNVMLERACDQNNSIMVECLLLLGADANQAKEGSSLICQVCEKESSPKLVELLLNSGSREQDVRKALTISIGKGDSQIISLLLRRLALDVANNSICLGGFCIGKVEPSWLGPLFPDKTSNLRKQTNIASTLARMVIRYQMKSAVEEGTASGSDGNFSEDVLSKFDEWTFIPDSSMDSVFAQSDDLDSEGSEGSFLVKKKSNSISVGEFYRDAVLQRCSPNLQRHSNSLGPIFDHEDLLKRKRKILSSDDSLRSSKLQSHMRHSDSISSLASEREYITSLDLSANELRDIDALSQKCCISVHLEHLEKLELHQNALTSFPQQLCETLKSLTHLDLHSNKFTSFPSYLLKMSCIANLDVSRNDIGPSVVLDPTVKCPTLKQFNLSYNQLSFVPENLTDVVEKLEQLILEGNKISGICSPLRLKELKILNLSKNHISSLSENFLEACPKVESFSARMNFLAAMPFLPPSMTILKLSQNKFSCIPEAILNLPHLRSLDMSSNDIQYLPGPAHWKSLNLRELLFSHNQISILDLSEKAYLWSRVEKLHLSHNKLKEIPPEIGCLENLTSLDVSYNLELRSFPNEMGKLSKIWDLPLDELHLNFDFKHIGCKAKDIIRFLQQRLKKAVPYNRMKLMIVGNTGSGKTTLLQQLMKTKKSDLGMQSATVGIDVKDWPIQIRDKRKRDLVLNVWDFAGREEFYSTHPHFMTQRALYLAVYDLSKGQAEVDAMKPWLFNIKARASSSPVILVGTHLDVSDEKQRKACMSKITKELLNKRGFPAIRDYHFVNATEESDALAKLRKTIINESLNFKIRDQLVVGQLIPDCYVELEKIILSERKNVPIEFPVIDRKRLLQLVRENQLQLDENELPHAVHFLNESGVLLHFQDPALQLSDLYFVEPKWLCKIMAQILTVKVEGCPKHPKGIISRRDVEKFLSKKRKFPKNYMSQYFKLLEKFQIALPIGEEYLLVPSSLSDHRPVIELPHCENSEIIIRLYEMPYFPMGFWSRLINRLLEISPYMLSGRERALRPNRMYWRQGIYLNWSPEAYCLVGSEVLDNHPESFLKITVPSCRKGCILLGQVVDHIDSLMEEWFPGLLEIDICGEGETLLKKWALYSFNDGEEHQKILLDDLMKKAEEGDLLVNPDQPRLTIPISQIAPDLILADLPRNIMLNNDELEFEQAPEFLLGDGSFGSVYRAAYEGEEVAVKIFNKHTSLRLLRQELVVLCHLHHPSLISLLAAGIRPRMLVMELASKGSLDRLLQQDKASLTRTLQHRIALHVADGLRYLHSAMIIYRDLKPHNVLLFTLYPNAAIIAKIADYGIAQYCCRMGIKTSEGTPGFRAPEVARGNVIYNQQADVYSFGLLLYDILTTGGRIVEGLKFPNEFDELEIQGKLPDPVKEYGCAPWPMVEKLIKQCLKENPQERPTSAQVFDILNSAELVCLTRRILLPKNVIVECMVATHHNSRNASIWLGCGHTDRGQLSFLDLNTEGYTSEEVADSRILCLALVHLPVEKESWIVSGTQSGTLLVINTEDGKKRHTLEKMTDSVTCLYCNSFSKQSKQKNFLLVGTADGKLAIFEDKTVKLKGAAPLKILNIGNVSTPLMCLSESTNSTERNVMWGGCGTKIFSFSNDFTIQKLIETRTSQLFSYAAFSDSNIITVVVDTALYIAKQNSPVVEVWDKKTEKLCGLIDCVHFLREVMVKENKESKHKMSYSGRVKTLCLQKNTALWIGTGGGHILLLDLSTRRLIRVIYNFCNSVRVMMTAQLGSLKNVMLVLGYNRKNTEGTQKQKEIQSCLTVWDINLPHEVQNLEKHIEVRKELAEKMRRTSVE

Row | SMILES | IC50 (LRRK2) [nM] | YAP/TAZ-TEAD activity (luciferase reporter) [1] | Papp B→A (Caco-2 permeability) [×10⁻⁶ cm/s] | Permeability (Caco-2 cell) | AUC(0-t) (in vivo) [µM·h] | Cmax (in vivo) [µM] | Tmax (in vivo) [min] | half-life (in vivo) [min] | LRRK2: IC50 (LRRK2) | efflux ratio (Caco-2 permeability) | Papp (Caco-2 permeability; Caco-2, classification) [×10⁻⁶ cm/s]
1 | Clc1cccc(-c2c[nH]c3ncnc(N4CCOCC4)c23)c1 [Compound 6, 4-(5-(3-Chlorophenyl)-7H-pyrrolo[2,3-d]pyrimidin-4-yl)morpholine] | ≤ 1000 | marked increase | 35.7 | High | – | – | – | – | – | – | –
2 | NC(=O)c1cccc(-c2c[nH]c3ncnc(N4CCOCC4)c23)c1 [Compound 11, 3-(4-Morpholino-7H-pyrrolo[2,3-d]pyrimidin-5-yl)benzamide] | ≥ 2000 | marked increase | 136 | Medium to High | 9.5 | 10.9 | 30 | 42 | – | – | –
3 | OC1CCN(c2ncnc3[nH]cc(-c4cccc(Cl)c4)c23)CC1 [Compound 16, 1-(5-(3-Chlorophenyl)-7H-pyrrolo[2,3-d]pyrimidin-4-yl)piperidin-4-ol] | – | marked increase | 294 | High | 4.3 | 5.8 | 15 | 594 | B (B: IC50 is >2000 nM and <1000 nM) | 1.3 | > 10
4 | Clc1cccc(-c2c[nH]c3nccc(N4CCOCC4)c23)c1 [Compound 23, 4-(3-(3-chlorophenyl)-1H-pyrrolo[2,3-b]pyridin-4-yl)morpholine] | ≤ 1000 | marked increase | 7 | High | – | – | – | – | – | 1.6 | –
5 | CC(=O)NC1CCN(c2ncnc3[nH]cc(-c4cccc(Cl)c4)c23)CC1 [Compound 105, N-(1-(5-(3-chlorophenyl)-7H-pyrrolo[2,3-d]pyrimidin-4-yl)piperidin-4-yl)acetamide] | – | – | – | – | 8.1 | 11.8 | 15 | 318 | B (B: IC50 is >2000 nM and <1000 nM) | – | –
